For 13 molecules, Ki, pD2 and ED50 results are on record in ChEMBL document CHEMBL1131557 (Bioorg Med Chem Lett, 1998).

The term Ki denotes the dissociation constant of the complex between target and ligand, obtained from inhibition or displacement. A lower Ki goes with tighter binding. As usually defined, the ED50 is the dose that gives a 50% effect, or the effect in half of the subjects. Read a low ED50 as an effect at a small dose.

The target of one experiment is Histamine H3 receptor (Cavia porcellus, UniProt Q9JI35). Description: Inhibition of [3H]N-alpha-methylhistamine binding to guinea pig brain Histamine H3 receptor.
A further experiment deals with Histamine H1 receptor (Cavia porcellus, UniProt P31389). Description: Binding affinity to H-1 receptor was determined in guinea pig brain tissue using [3H]- […] ligand.
The target of experiment [1] is Histamine H3 receptor (Cavia porcellus) (UniProt Q9JI35). The note with it: Ileum.
Description: (§1) In vitro effective concentration for H-3-mediated contraction of guinea pig ileum
Experiment [2] deals with Histamine H1 receptor (Cavia porcellus) (UniProt P31389). The settings on record: Ileum.
Description: In vitro effective concentration for H-1-mediated contraction of guinea pig ileum
For experiment [3] the target is unchanged. Description: H1-mediated bronchoconstrictor effect after intravenous administration in anesthetized guinea pig. It counts as functional, organism-based. The note with it: Lung.
The target of experiment [4] is Histamine H3 receptor (Cavia porcellus) (UniProt Q9JI35). The note with it: Ileum. This is another data set of the same source.
Description: as §1
Experiment [5] addresses Histamine H1 receptor (Cavia porcellus) (UniProt P31389). The settings on record: Ileum. The source holds these as a separate data set.
Description: In vitro effective concentration for H1-mediated contraction of guinea pig ileum

Sequence of Histamine H3 receptor (Q9JI35 whole entry): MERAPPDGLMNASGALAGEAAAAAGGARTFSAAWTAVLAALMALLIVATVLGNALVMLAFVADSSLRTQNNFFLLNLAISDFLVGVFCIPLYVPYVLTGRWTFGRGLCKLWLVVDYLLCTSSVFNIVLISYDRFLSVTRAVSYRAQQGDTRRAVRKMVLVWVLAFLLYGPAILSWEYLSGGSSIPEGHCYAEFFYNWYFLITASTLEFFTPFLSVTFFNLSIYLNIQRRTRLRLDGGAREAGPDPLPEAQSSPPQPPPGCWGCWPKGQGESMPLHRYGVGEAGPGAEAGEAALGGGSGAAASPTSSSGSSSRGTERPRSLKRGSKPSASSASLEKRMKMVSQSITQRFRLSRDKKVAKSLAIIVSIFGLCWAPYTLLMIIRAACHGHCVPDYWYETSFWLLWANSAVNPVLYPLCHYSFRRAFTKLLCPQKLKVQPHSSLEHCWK
Sequence of Histamine H1 receptor (Cavia porcellus) (P31389 whole entry): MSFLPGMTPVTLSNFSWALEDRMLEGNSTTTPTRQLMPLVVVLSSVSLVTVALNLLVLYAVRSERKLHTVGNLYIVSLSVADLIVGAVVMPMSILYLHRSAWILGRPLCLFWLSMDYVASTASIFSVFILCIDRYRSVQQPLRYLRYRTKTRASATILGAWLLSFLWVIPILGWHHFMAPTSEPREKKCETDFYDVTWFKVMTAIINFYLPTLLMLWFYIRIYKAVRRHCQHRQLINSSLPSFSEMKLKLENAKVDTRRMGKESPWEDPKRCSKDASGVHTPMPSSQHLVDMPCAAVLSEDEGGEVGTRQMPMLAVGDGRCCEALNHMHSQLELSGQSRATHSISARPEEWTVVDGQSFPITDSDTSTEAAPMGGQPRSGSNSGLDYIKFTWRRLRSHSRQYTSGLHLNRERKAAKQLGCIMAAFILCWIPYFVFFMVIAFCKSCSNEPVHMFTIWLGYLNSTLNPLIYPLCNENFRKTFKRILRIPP
Sequence of Histamine H3 receptor (Cavia porcellus) (Q9JI35 whole entry): as the sequence (Q9JI35 whole entry) above
Sequence of Histamine H1 receptor (P31389 whole entry): as the sequence (P31389 whole entry) above

Turning to `C[C@H]1CNC[C@@H]1c1c[nH]cn1`, the Ki at Histamine H3 receptor is 2.3 nM; at Histamine H1 receptor it was > 10000 nM. Also, the pD2 is 7.5 in experiment [1] and < 4 in experiment [2].
As for `C[C@@H]1NCC[C@@H]1c1c[nH]cn1`, the affinity on Histamine H3 receptor, expressed as Ki, was 59 nM.
On the same count and under the same terms, to `CC[C@H]1NCC[C@@H]1c1cnc[nH]1` belongs 150 nM.
The same measure, in the same setting: as for `C[C@H]1C[C@H](c2cnc[nH]2)CN1`, the figure is 76 nM.
Same read-out and setting: as for `C[C@H]1NCCC[C@@H]1c1cnc[nH]1`, the figure is > 2000 nM; as for `c1ccc(C[C@H]2NCC[C@@H]2c2c[nH]cn2)cc1`, > 2000 nM.
In the case of `C[C@H]1NC[C@@H]1c1c[nH]cn1`, the Ki at Histamine H3 receptor stood at 7 nM. In addition, in experiment [3], the ED50 was > 0.3 mg/kg.
In the case of `C[C@H]1CNC[C@H]1c1c[nH]cn1`, the affinity on Histamine H3 receptor corresponds to a Ki of 3 nM. In other words, the single-digit nanomolar range.
On the same count and under the same terms, as for `C[C@H]1NCC[C@@H]1c1c[nH]cn1`, the figure is 3 nM.
In the case of `C[C@@H](N)Cc1c[nH]cn1`, the inhibitory constant (Ki) on Histamine H1 receptor was > 10000 nM. The figures for the pD2 in experiment [4] and in experiment [5] were 8.2 and 5.4, respectively.
Turning to `C[C@@H]1CNC[C@H]1c1cnc[nH]1`, on Histamine H3 receptor, the inhibitory constant (Ki) was found to be 5 nM.
The molecule `C[C@]1(c2c[nH]cn2)CCNC1` gave a Ki on Histamine H3 receptor of 170 nM.
Take `c1nc(C2CCNC2)c[nH]1` (stereo not given): the Ki at Histamine H3 receptor was 2 nM. In addition, the median effective dose (ED50) in experiment [3] was determined as 0.3 mg/kg.
